Holding throughout (details): in vivo
In assay [1] the test system is sea tulip Balanus improvisus.
The test system of assay [2] is blue mussel Mytilus edulis.
Assay [3] deals with total growth of marine organisms on the panels.
For assay [4], the system named is growth of marine organisms on the painted surfaces.

The source of these data is patent US7446226B2 (priority 2003, dated 2008).

`COc1cc(CNC(=O)CCCC/C=C/C(C)C)ccc1O` [capsaicin, (E)-8-methyl-N-vanillyl-6-nonenamide]: in assay [1], the “Coverage of the sea tulip Balanus improvisus compared with the 2 other treatments” value was “significantly lower” and the “Reduction in growth measured as coverage of the sea tulip” value was determined as 74%. Further, in assay [2], the “Coverage of the blue mussel Mytilus edulis, difference between the 3 treatments” value is reported as “no statistically significant difference”. Moreover, in assay [3], the “Reduction in growth measured as a reduction in wet weight of total growth” value was 64% and the “Wet weight of the total growth on the panels compared with the two other treatments” value is listed as “statistically lower growth”. The “Growth on surfaces by optical comparison with the control surfaces” value in assay [4] was “considerably less growth”.
